Here are results for 37 molecules from US10710986B2, “PD-1/PD-L1 inhibitors” (Gilead Sciences, Inc., priority 2018, dated 2020).

Structures are written as SMILES.

The target in this assay is PD-1/PD-L1 (Homo sapiens (Human), UniProt Q9NZQ7). The experiment in a line: PD-1/PD-L1 biochemical protein-protein interaction assay (ALPHA). To be noted: 0.3 nM His tagged PD-L1, 2.5 nM biotinylated Fc-PD-1, 60 minutes at 25° C., read-out: IC50 PD-L1-PD1.
Chain of PD-1/PD-L1 (Q9NZQ7 19-238): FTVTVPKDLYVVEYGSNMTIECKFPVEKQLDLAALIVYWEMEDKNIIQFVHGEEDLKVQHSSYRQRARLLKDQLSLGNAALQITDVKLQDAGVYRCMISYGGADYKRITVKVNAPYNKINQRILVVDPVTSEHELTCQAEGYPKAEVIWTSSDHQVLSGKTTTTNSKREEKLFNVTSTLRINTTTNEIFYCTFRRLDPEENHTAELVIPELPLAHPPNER

One may read the IC50 as the midpoint of a concentration-inhibition curve. As to `COc1nc(-c2cccc(-c3cccc(-c4cnc(CN[C@@H]5C[C@@H]5F)c(OC)n4)c3Cl)c2Cl)cnc1CNC[C@@H]1CCC(=O)N1` [compound 178], the half-maximal inhibitory concentration (IC50) was found to be 553 pM.

As for `COc1nc(-c2cccc(-c3cccc(-c4cnc(CNC[C@@H]5CCC(=O)N5)c(OC)n4)c3Cl)c2Cl)cnc1CNCC1CC1` [compound 179], the IC50 is 211 pM.

For `COc1nc(-c2cccc(-c3cccc(-c4cnc(CN[C@@H]5C[C@@H]5C(F)F)c(OC)n4)c3Cl)c2Cl)cnc1CNC[C@@H]1CCC(=O)N1` [compound 180], the IC50 came to 1030 pM.

Regarding `COc1nc(-c2cccc(-c3cccc(-c4cnc(CNC(C)(C)C(F)F)c(OC)n4)c3Cl)c2Cl)cnc1CNC[C@@H]1CCC(=O)N1` [compound 181], the IC50 was determined as 1510 pM.

For `COc1nc(-c2cccc(-c3cccc(-c4cnc(CNC5CC5)c(OC)n4)c3Cl)c2Cl)cnc1CNC[C@@H]1CCC(=O)N1` [compound 184], the IC50 was 763 pM.

For `COCC1(NCc2ncc(-c3cccc(-c4cccc(-c5cnc(CNC[C@@H]6CCC(=O)N6)c(OC)n5)c4Cl)c3Cl)nc2OC)CCC1` [compound 185], the half-maximal inhibitory concentration (IC50) was determined as 480 pM.

Take `COc1nc(-c2cccc(-c3cccc(-c4cnc(CNC[C@H]5CCC[C@@H]5O)c(OC)n4)c3Cl)c2Cl)cnc1CNC[C@@H]1CCC(=O)N1` [compound 186]: the IC50 came out at 100 pM.

On to `COc1nc(-c2cccc(-c3cccc(-c4cnc(CN5C[C@H]6C[C@H]6[C@H]5CO)c(OC)n4)c3Cl)c2Cl)cnc1CNC[C@@H]1CCC(=O)N1` [compound 187], for which the IC50 is 280 pM.

As for `COC(=O)NC1CCN(Cc2ncc(-c3cccc(-c4cccc(-c5cnc(CNC[C@@H]6CCC(=O)N6)c(OC)n5)c4Cl)c3Cl)nc2OC)C1` (stereo partly shown) [compound 188], the 50% inhibitory concentration (IC50) came to 120 pM.

For the molecule `COc1nc(-c2cccc(-c3cccc(-c4cnc(CNCC5CN(C(C)=O)C5)c(OC)n4)c3Cl)c2Cl)cnc1CNCC1CN(C(C)=O)C1` [compound 189], the IC50 was determined as 94 pM.

`COc1nc(-c2cccc(-c3cccc(-c4cnc(CNC5CC6(C5)CN(C(C)=O)C6)c(OC)n4)c3Cl)c2Cl)cnc1CNC1CC2(C1)CN(C(C)=O)C2` (stereo not shown) [compound 190]: the concentration for half-maximal inhibition (IC50) is 200 pM.

In the case of `COc1nc(-c2cccc(-c3cccc(-c4cnc(CNC5CN(C(C)=O)C5)c(OC)n4)c3Cl)c2Cl)cnc1CNC[C@@H]1CCC(=O)N1` [compound 191], the concentration for half-maximal inhibition (IC50) was 143 pM.

Take `COc1nc(-c2cccc(-c3cccc(-c4cnc(CN5CC6(C5)CN(C(C)=O)C6)c(OC)n4)c3Cl)c2Cl)cnc1CNC[C@H]1CCC(=O)N1` [compound 192]: the 50% inhibitory concentration (IC50) was 156 pM.

In the case of `COc1nc(-c2cccc(-c3cccc(-c4cnc(CN5CCC6(CNC(=O)C6)C5)c(OC)n4)c3Cl)c2Cl)cnc1CNC[C@H]1CCC(=O)N1` (stereo partly shown) [compound 193], the concentration for half-maximal inhibition (IC50) stood at 133 pM.

Consider `COc1nc(-c2cccc(-c3cccc(-c4cnc(CNC5CCN(C(C)=O)C5)c(OC)n4)c3Cl)c2Cl)cnc1CNC[C@H]1CCC(=O)N1` (stereo partly shown) [compound 194], for which the IC50 was 149 pM.

In the case of `COc1nc(-c2cccc(-c3cccc(-c4cnc(CN[C@H]5CC[C@H](NC(C)=O)CC5)c(OC)n4)c3Cl)c2Cl)cnc1CNC[C@H]1CCC(=O)N1` [compound 195], the half-maximal inhibitory concentration (IC50) was 64 pM.

For `COc1nc(-c2cccc(-c3cccc(-c4cnc(CNC[C@H]5CCC(=O)N5)c(OC)n4)c3Cl)c2Cl)cnc1CNCC1CNC(=O)C1` (stereo partly shown) [compound 196], the IC50 was found to be 170 pM.

On to `COc1nc(-c2cccc(-c3cccc(-c4cnc(CN5CCC6(CCC(=O)N6)C5)c(OC)n4)c3Cl)c2Cl)cnc1CNC[C@H]1CCC(=O)N1` (stereo partly shown) [compound 197], for which the half-inhibitory concentration (IC50) was 230 pM.

As to `COc1nc(-c2cccc(-c3cccc(-c4cnc(CN5CC[C@@H](NC(C)=O)C5)c(OC)n4)c3Cl)c2Cl)cnc1CNC[C@H]1CCC(=O)N1` [compound 198], the IC50 came to 121 pM.

In the case of `COc1nc(-c2cccc(-c3cccc(-c4cnc(CN[C@@H]5CNC(=O)C5)c(OC)n4)c3Cl)c2Cl)cnc1CNC[C@H]1CCC(=O)N1` [compound 199], the IC50 came out at 126 pM.

Regarding `COc1nc(-c2cccc(-c3cccc(-c4cnc(CN[C@H]5CNC(=O)C5)c(OC)n4)c3Cl)c2Cl)cnc1CNC[C@H]1CCC(=O)N1` [compound 200], the concentration for half-maximal inhibition (IC50) was 132 pM.

Consider `COc1nc(-c2cccc(-c3cccc(-c4cnc(CNC[C@H]5CCC(=O)N5)c(OC)n4)c3Cl)c2Cl)cnc1CNCCc1ncc[nH]1` [compound 201], for which the IC50 is 280 pM.

In the case of `COc1nc(-c2cccc(-c3cccc(-c4cnc(CNC5CCC6(CNC(=O)C6)C5)c(OC)n4)c3Cl)c2Cl)cnc1CNC[C@H]1CCC(=O)N1` (stereo partly shown) [compound 202], the concentration for half-maximal inhibition (IC50) is 144 pM.

On to `COc1nc(-c2cccc(-c3cccc(-c4cnc(CN5CCC6(CCC(=O)N6)CC5)c(OC)n4)c3Cl)c2Cl)cnc1CNC[C@H]1CCC(=O)N1` [compound 203], for which the IC50 was 129 pM.

As for `COc1nc(-c2cccc(-c3cccc(-c4cnc(CN5CC[C@H](NC(C)=O)C5)c(OC)n4)c3Cl)c2Cl)cnc1CNC[C@H]1CCC(=O)N1` [compound 204], the IC50 was found to be 110 pM.

As to `COc1nc(-c2cccc(-c3cccc(-c4cnc(CNC5CCCN(C(C)=O)C5)c(OC)n4)c3Cl)c2Cl)cnc1CNC[C@H]1CCC(=O)N1` (stereo partly shown) [compound 205], the concentration for half-maximal inhibition (IC50) was determined as 79 pM.

Regarding `COc1nc(-c2cccc(-c3cccc(-c4cnc(CNC5CCN(C(C)=O)CC5)c(OC)n4)c3Cl)c2Cl)cnc1CNC[C@H]1CCC(=O)N1` [compound 206], the IC50 is 113 pM.

Regarding `COc1nc(-c2cccc(-c3cccc(-c4cnc(CN5CC6(CNC(=O)N6)C5)c(OC)n4)c3Cl)c2Cl)cnc1CNC[C@H]1CCC(=O)N1` [compound 207], the IC50 was 104 pM.

As to `COc1nc(-c2cccc(-c3cccc(-c4cnc(CNC5CC6(C5)CN(C(C)=O)C6)c(OC)n4)c3Cl)c2Cl)cnc1CNC[C@H]1CCC(=O)N1` [compound 208], the half-inhibitory concentration (IC50) is 223 pM.

For `COc1nc(-c2cccc(-c3cccc(-c4cnc(CN5CC6(C5)CN(C(C)=O)C6)c(OC)n4)c3Cl)c2Cl)cnc1CN1CC2(C1)CN(C(C)=O)C2` [compound 209], the half-inhibitory concentration (IC50) is 175 pM.

Regarding `COc1nc(-c2cccc(-c3cccc(-c4cnc(CNCC5(C)COC(=O)N5)c(OC)n4)c3Cl)c2Cl)cnc1CNC[C@@H]1CCC(=O)N1` (stereo partly shown) [compound 210], the IC50 came out at 300 pM.

As for `COc1nc(-c2cccc(-c3cccc(-c4cnc(CNC[C@@H]5CCC(=O)N5)c(OC)n4)c3Cl)c2Cl)cnc1CNCCN1CCNC1=O` [compound 211], the IC50 was 95 pM.

As for `COc1nc(-c2cccc(-c3cccc(-c4cnc(CNC5CCc6cn[nH]c6C5)c(OC)n4)c3Cl)c2Cl)cnc1CNC[C@@H]1CCC(=O)N1` (stereo partly shown) [compound 212], the 50% inhibitory concentration (IC50) worked out at 480 pM.

Take `COc1nc(-c2cccc(-c3cccc(-c4cnc(CNCC5(C#N)CCC5)c(OC)n4)c3Cl)c2Cl)cnc1CNC[C@@H]1CCC(=O)N1` [compound 213]: the IC50 came to 840 pM.

As for `COc1nc(-c2cccc(-c3cccc(-c4cnc(CNC[C@@H]5CCC(=O)N5)c(OC)n4)c3Cl)c2Cl)cnc1CNCCn1ccc(C)n1` [compound 214], the IC50 came to 260 pM.

Regarding `COC[C@@H]1CC[C@H]1NCc1ncc(-c2cccc(-c3cccc(-c4cnc(CNC[C@@H]5CCC(=O)N5)c(OC)n4)c3Cl)c2Cl)nc1OC` [compound 215], the half-maximal inhibitory concentration (IC50) is 110 pM.

In the case of `COc1nc(-c2cccc(-c3cccc(-c4cnc(CN5CC[C@@H]6CC[C@@H](O)[C@@H]65)c(OC)n4)c3Cl)c2Cl)cnc1CNC[C@@H]1CCC(=O)N1` [compound 216], the IC50 was 210 pM.
